Reference: the CheMixHub viscosity set

Test: xn = mol fraction of the nth substance listed

CCC(N)C(=O)[O-].[K+] (stereo unspecified) + O
viscosity [mPa·s], 101.3 kPa
Conditions | x1 = 0.009 | x1 = 0.019 | x1 = 0.029 | x1 = 0.039 | x1 = 0.05 | x1 = 0.06
303.15 K | 0.988 | 1.223 | 1.552 | 1.974 | 2.518 | 3.297
308.15 K | 0.884 | 1.093 | 1.394 | 1.74 | 2.206 | 2.877
313.15 K | 0.803 | 0.984 | 1.257 | 1.559 | 1.962 | 2.544
318.15 K | 0.728 | 0.89 | 1.133 | 1.399 | 1.757 | 2.257
323.15 K | 0.67 | 0.813 | 1.032 | 1.272 | 1.585 | 2.017

O=[N+]([O-])[O-].O=[N+]([O-])[O-].[Ba+2] + O
viscosity [mPa·s], 100 kPa
Conditions | x1 = 0.0003 | x1 = 0.001 | x1 = 0.003 | x1 = 0.004 | x1 = 0.006
298.15 K | 0.888 | 0.9055 | 0.9235 | 0.943 | 0.965
323.15 K | 0.5475 | 0.562 | 0.5775 | 0.59 | 0.603

CC(Cl)(Cl)Cl + CCCCCCCO
303.15 K, 101 kPa
Conditions | viscosity [mPa·s]
x2 = 0.1177 | 0.974
x2 = 0.2075 | 1.143
x2 = 0.4385 | 1.666
x2 = 0.5262 | 1.941
x2 = 0.5911 | 2.186
x2 = 0.6407 | 2.407
x2 = 0.7497 | 2.99
x2 = 0.8365 | 3.56
x2 = 0.9206 | 4.198

CCCC[N+](CCCC)(CCCC)CCCC.[OH-] + CS(C)=O
viscosity [mPa·s], 100 kPa
Conditions | 298.15 K | 303.15 K | 308.15 K | 313.15 K
x1 = 0.0159 | 2.19 | 2.01 | 1.87 | 1.77
x1 = 0.0368 | 2.43 | 2.31 | 2.19 | 2.12
x1 = 0.0632 | 2.72 | 2.58 | 2.47 | 2.38
x1 = 0.0911 | 3.02 | 2.88 | 2.77 | 2.7
x1 = 0.1206 | 3.32 | 3.18 | 3.08 | 3
x1 = 0.1519 | 3.65 | 3.5 | 3.4 | 3.33
x1 = 0.2183 | 4.25 | 4.13 | 4.07 | 4.02
x1 = 0.2907 | 4.86 | 4.75 | 4.69 | 4.65
x1 = 0.3787 | 5.51 | 5.38 | 5.33 | 5.29
x1 = 0.4429 | 5.92 | 5.79 | 5.73 | 5.69
x1 = 0.5298 | 6.4 | 6.26 | 6.17 | 6.13
x1 = 0.6052 | 6.71 | 6.56 | 6.45 | 6.42
x1 = 0.6947 | 6.97 | 6.82 | 6.67 | 6.62
x1 = 0.7486 | 7.03 | 6.88 | 6.74 | 6.7
x1 = 0.8273 | 7.07 | 6.93 | 6.77 | 6.7
x1 = 0.8964 | 7 | 6.85 | 6.69 | 6.54
x1 = 0.9481 | 6.86 | 6.7 | 6.53 | 6.42
x1 = 0.9765 | 6.76 | 6.61 | 6.42 | 6.32

O=C([O-])C(F)(F)F.[Cs+] + O
viscosity [mPa·s], 101 kPa
Conditions | 298.15 K | 303.15 K | 308.15 K | 313.15 K
x1 = 0.00102 | 0.897 | 0.805 | 0.727 | 0.663
x1 = 0.00146 | 0.899 | 0.808 | 0.729 | 0.666
x1 = 0.002202 | 0.904 | 0.812 | 0.734 | 0.67
x1 = 0.00303 | 0.909 | 0.817 | 0.739 | 0.675
x1 = 0.003649 | 0.913 | 0.821 | 0.743 | 0.679
x1 = 0.004385 | 0.918 | 0.826 | 0.747 | 0.684
x1 = 0.005137 | 0.923 | 0.83 | 0.752 | 0.689
x1 = 0.005844 | 0.928 | 0.836 | 0.757 | 0.693
x1 = 0.006694 | 0.933 | 0.841 | 0.762 | 0.698
x1 = 0.007272 | 0.937 | 0.845 | 0.767 | 0.702
x1 = 0.008058 | 0.943 | 0.85 | 0.772 | 0.707
x1 = 0.008713 | 0.947 | 0.855 | 0.777 | 0.711
x1 = 0.009254 | 0.95 | 0.858 | 0.78 | 0.716
x1 = 0.01011 | 0.956 | 0.864 | 0.784 | 0.721

CC(C)C1CCCCC1 + CCCCO
viscosity [mPa·s], 100 kPa
Conditions | x1 = 0.0995 | x1 = 0.1998 | x1 = 0.2959 | x1 = 0.4009 | x1 = 0.4944 | x1 = 0.5738 | x1 = 0.6818 | x1 = 0.7966 | x1 = 0.8935
293.15 K | 2.489 | 2.126 | 1.858 | 1.614 | 1.45 | 1.325 | 1.214 | 1.139 | 1.105
298.15 K | 2.189 | 1.884 | 1.654 | 1.449 | 1.31 | 1.207 | 1.114 | 1.051 | 1.022
303.15 K | 1.94 | 1.678 | 1.481 | 1.308 | 1.189 | 1.104 | 1.024 | 0.974 | 0.95
308.15 K | 1.726 | 1.501 | 1.332 | 1.185 | 1.085 | 1.014 | 0.947 | 0.905 | 0.885
313.15 K | 1.539 | 1.348 | 1.203 | 1.078 | 0.994 | 0.935 | 0.879 | 0.844 | 0.827
318.15 K | 1.379 | 1.216 | 1.092 | 0.985 | 0.915 | 0.866 | 0.818 | 0.789 | 0.774
323.15 K | 1.241 | 1.1 | 0.995 | 0.906 | 0.845 | 0.804 | 0.764 | 0.738 | 0.727

CC(Cl)(Cl)Cl + Cc1ccccc1
303.15 K, 101 kPa
Conditions | viscosity [mPa·s]
x1 = 0.1635 | 0.5716
x1 = 0.2871 | 0.6046
x1 = 0.3684 | 0.6248
x1 = 0.4152 | 0.6363
x1 = 0.4825 | 0.6505
x1 = 0.5694 | 0.6666
x1 = 0.6729 | 0.6834
x1 = 0.763 | 0.6958
x1 = 0.8412 | 0.7049
x1 = 0.9286 | 0.7156

CC(Cl)(Cl)Cl + O=C1CCCCC1
298.15 K, 101.33 kPa
Conditions | viscosity [mPa·s]
x1 = 0.053 | 1.896
x1 = 0.099 | 1.812
x1 = 0.151 | 1.725
x1 = 0.252 | 1.568
x1 = 0.352 | 1.43
x1 = 0.452 | 1.305
x1 = 0.551 | 1.192
x1 = 0.6 | 1.141
x1 = 0.651 | 1.089
x1 = 0.7 | 1.041
x1 = 0.8 | 0.9504
x1 = 0.861 | 0.8988

CC(Cl)(Cl)Cl + CCO
viscosity [mPa·s], 101.32 kPa
Conditions | x2 = 0.1602 | x2 = 0.3002 | x2 = 0.4237 | x2 = 0.5336 | x2 = 0.6318 | x2 = 0.7202 | x2 = 0.8001 | x2 = 0.8728 | x2 = 0.9392
303.15 K | 0.705 | 0.745 | 0.778 | 0.839 | 0.87 | 0.902 | 0.924 | 0.942 | 0.984
313.15 K | 0.614 | 0.669 | 0.683 | 0.71 | 0.745 | 0.761 | 0.784 | 0.807 | 0.819
323.15 K | 0.56 | 0.597 | 0.604 | 0.614 | 0.639 | 0.655 | 0.664 | 0.684 | 0.692

CC/C(C)=N/O + CCCCCC
viscosity [mPa·s], 101.3 kPa
Conditions | x1 = 0.0993 | x1 = 0.1991 | x1 = 0.2977 | x1 = 0.3987 | x1 = 0.4972 | x1 = 0.5993 | x1 = 0.6977 | x1 = 0.7981 | x1 = 0.899
293.15 K | 0.345 | 0.393 | 0.461 | 0.556 | 0.69 | 0.899 | 1.213 | 1.729 | 2.695
298.15 K | 0.33 | 0.376 | 0.437 | 0.526 | 0.646 | 0.835 | 1.111 | 1.559 | 2.357
303.15 K | 0.315 | 0.357 | 0.414 | 0.495 | 0.605 | 0.776 | 1.019 | 1.411 | 2.09

CCCCCBr + Cc1cc(C)cc(C)c1
308.15 K, 101 kPa
Conditions | viscosity [mPa·s]
x2 = 0.1098 | 0.6376
x2 = 0.2005 | 0.6292
x2 = 0.2983 | 0.6179
x2 = 0.4035 | 0.6093
x2 = 0.4979 | 0.6042
x2 = 0.6027 | 0.5945
x2 = 0.802 | 0.5739
x2 = 0.8481 | 0.5719
x2 = 0.9023 | 0.5699

O=CO + CN(C)C=O
303.15 K, 101 kPa
Conditions | viscosity [mPa·s]
x1 = 0.1513 | 0.848
x1 = 0.2841 | 0.986
x1 = 0.4038 | 1.16
x1 = 0.6144 | 1.45
x1 = 0.7869 | 1.58
x1 = 0.8657 | 1.58

C1CCOCC1 + CCCCO
viscosity [mPa·s], 101.3 kPa
Conditions | x1 = 0.0478 | x1 = 0.0969 | x1 = 0.1984 | x1 = 0.288 | x1 = 0.3973 | x1 = 0.5005 | x1 = 0.6788 | x1 = 0.7023 | x1 = 0.8041 | x1 = 0.9024
298.15 K | 2.294 | 2.056 | 1.662 | 1.426 | 1.222 | 1.087 | 0.931 | 0.9162 | 0.8645 | 0.8316
313.15 K | 1.633 | 1.483 | 1.255 | 1.086 | 0.9459 | 0.8494 | 0.7345 | 0.7252 | 0.6832 | 0.6584
